Data from US11814444B2, “Cyclic polypeptides for PCSK9 inhibition” (Ra Pharmaceuticals, Inc., priority 2018, dated 2023).
Numbered stars: 1 amine (or outer) side, 2 acyl side, 3 side chain; on linkers, the order of the positions; unused ones are H or OH. Bridge positions count the residues as written; N and C are the ends. Square brackets hold non-standard residues; d marks the D form. Peptide text beside a SMILES is read from it. Phe(4-guanidino) = N=C(N)Nc1ccc(C[C@H](N)C(=O)O)cc1; Trp(7-aza) = N[C@@H](Cc1c[nH]c2ncccc12)C(=O)O; dBip = N[C@H](Cc1ccc(-c2ccccc2)cc1)C(=O)O; NMeW = CN[C@@H](Cc1c[nH]c2ccccc12)C(=O)O; Ala(2-furyl) = N[C@@H](Cc1ccco1)C(=O)O; 1Nal = N[C@@H](Cc1cccc2ccccc12)C(=O)O; mXylylene = c1cc(C[*:1])cc(C[*:2])c1; Bta = N[C@@H](Cc1csc2ccccc12)C(=O)O; Gly(octyl) = CCCCCCCC[C@H](N)C(=O)O; Val(3-OH) = CC(C)(O)[C@H](N)C(=O)O; Aad = N[C@@H](CCCC(=O)O)C(=O)O; Aic = NC1(C(=O)O)Cc2ccccc2C1; Tle = CC(C)(C)[C@H](N)C(=O)O; αMeV = CC(C)[C@](C)(N)C(=O)O; S5 = C=CCCC[C@](C)(N)C(=O)O; hSer = N[C@@H](CCO)C(=O)O; Iva = CC[C@](C)(N)C(=O)O; Nva = CCC[C@H](N)C(=O)O; Ac4c = NC1(C(=O)O)CCC1; Mpa = O=C(O)CCS

Biological target: human PCSK9 / human LDLR EGFa domain interaction (Homo sapiens, UniProt Q8NBP7)
Assay: TR-FRET assay of inhibition of the PCSK9-LDLR protein-protein interaction
Format: binding
Conditions: 20 nM avitag-biotinylated human PCSK9, 20 nM his-tagged human LDLR EGFa domain, 2 hours, room temperature
Procedure: A time-resolved fluorescence resonance energy (TR-FRET) assay was used to measure inhibition of the PCSK9-LDLR protein-protein interaction. Briefly, 20 nM avitag-biotinylated human PCSK9 was incubated with 20 nM his-tagged human LDLR EGFa domain in the presence of 5 nM LANCE Ulight Streptavidin (Perkin Elmer) and 5 nM europium-Anti-6×His (Perkin Elmer) for 2 hours covered at room temperature in buffer containing 50 mM HEPES, 150 mM NaCl, 5 mM CaCl2), 0.01% BSA and 0.01% Surfactant P20. Compounds were tested in dose-response and concentrations giving half-maximal inhibition calculated using a 4-parameter fit equation.

human PCSK9 / human LDLR EGFa domain interaction, sequence (Q8NBP7 153-692): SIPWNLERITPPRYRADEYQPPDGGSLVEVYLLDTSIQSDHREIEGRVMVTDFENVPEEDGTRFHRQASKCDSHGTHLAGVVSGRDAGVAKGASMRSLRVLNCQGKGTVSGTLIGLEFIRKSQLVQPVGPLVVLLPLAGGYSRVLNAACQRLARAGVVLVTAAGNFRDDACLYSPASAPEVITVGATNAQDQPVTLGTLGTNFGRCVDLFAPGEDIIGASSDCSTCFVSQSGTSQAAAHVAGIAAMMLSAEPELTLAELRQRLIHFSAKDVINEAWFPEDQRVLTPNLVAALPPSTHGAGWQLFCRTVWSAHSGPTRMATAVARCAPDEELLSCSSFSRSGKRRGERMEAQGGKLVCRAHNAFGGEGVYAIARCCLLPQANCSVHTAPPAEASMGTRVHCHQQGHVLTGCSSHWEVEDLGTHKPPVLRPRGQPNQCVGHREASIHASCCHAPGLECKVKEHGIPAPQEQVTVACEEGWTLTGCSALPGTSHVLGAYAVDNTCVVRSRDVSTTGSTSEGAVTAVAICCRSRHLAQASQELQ
human PCSK9 / human LDLR EGFa domain interaction, sequence (Q8NBP7 31-152 partner limits assumed): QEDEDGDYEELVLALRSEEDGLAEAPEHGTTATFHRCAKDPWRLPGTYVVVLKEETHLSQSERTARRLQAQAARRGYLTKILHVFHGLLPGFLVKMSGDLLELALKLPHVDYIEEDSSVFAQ

SMILES	IC50
CCC[C@@H]1NC(=O)[C@H](Cc2ccc(O)cc2)NC(=O)[C@H](CCC(=O)O)NC(=O)[C@H](CCC)NC(=O)[C@H](Cc2c[nH]c3ccccc23)N(C)C(=O)[C@H]([C@@H](C)O)NC(=O)[C@H](Cc2c[nH]cn2)NC(=O)[C@H](Cc2ccc(O)cc2)NC(=O)[C@H](C(C)(C)C)NC(=O)CCSCc2cccc(c2)CSC[C@@H](C(N)=O)NC(=O)[C@H]([C@@H](C)O)NC1=O [Compound 206] ([Mpa][Tle]YHT[NMeW][Nva]EY[Nva]TC-NH2; linker 1-12 via mXylylene)	50000 to 100000 nM
CCC[C@@H]1NC(=O)[C@H](Cc2c[nH]c3ncccc23)NC(=O)[C@H]([C@@H](C)O)NC(=O)[C@H](Cc2c[nH]cn2)NC(=O)[C@H](Cc2ccc(O)cc2)NC(=O)[C@H](C(C)(C)C)NC(=O)CCSCc2cccc(c2)CSC[C@@H](C(N)=O)NC(=O)[C@H]([C@@H](C)O)NC(=O)[C@H](CCC)NC(=O)[C@H](Cc2ccc(NC(=N)N)cc2)NC(=O)[C@H](CCC(=O)O)NC1=O [Compound 323] ([Mpa][Tle]YHT[Trp(7-aza)][Nva]E[Phe(4-guanidino)][Nva]TC-NH2; linker 1-12 via mXylylene)	1000 to 21000 nM
CCC[C@@H]1NC(=O)[C@H](Cc2c[nH]c3ncccc23)NC(=O)[C@H]([C@@H](C)O)NC(=O)[C@@H]2CCCN2C(=O)[C@H](Cc2ccc(O)cc2)NC(=O)[C@H](C(C)(C)C)NC(=O)CCSCc2cccc(c2)CSC[C@@H](C(N)=O)NC(=O)[C@H](CCC(=O)O)NC(=O)[C@H](CCC)NC(=O)[C@H](Cc2ccc(O)cc2)NC(=O)[C@H](C)NC1=O [Compound 159] ([Mpa][Tle]YPT[Trp(7-aza)][Nva]AY[Nva]EC-NH2; linker 1-12 via mXylylene)	1000 to 21000 nM
CCC[C@@H]1NC(=O)[C@H](Cc2c[nH]c3ncccc23)NC(=O)[C@H]([C@@H](C)O)NC(=O)[C@@H](Cc2cnc[nH]2)NC(=O)[C@H](Cc2ccc(O)cc2)NC(=O)[C@H](C(C)(C)C)NC(=O)CCSCc2cccc(c2)CSC[C@@H](C(N)=O)NC(=O)[C@H]([C@@H](C)O)NC(=O)[C@H](CCC)NC(=O)[C@H](Cc2ccc(O)cc2)NC(=O)[C@H](CCC(=O)O)NC1=O [Compound 204] ([Mpa][Tle]Y[dH]T[Trp(7-aza)][Nva]EY[Nva]TC-NH2; linker 1-12 via mXylylene)	1000 to 21000 nM
CCC[C@@H]1NC(=O)[C@H]([C@@H](C)O)NC(=O)[C@@H]2CCCN2C(=O)[C@H](Cc2ccc(O)cc2)NC(=O)[C@H](C(C)(C)C)NC(=O)[C@@H](NC(C)=O)CCCCNC(=O)CCC[C@@H](C(N)=O)NC(=O)[C@H]([C@@H](C)O)NC(=O)[C@](C)(C(C)C)NC(=O)[C@H](Cc2ccc(O)cc2)NC(=O)[C@H](C)NC1=O [Compound 057] (Ac-K[Tle]YPT[Nva]AY[αMeV]T[Aad]-NH2; lactam 1-11)	1000 to 21000 nM
C=CCCC[C@]1(C)NC(=O)[C@H](CCC)NC(=O)[C@H](Cc2ccc(O)cc2)NC(=O)[C@H](C)NC(=O)[C@](C)(CC)NC(=O)[C@H](Cc2c[nH]c3ncccc23)NC(=O)[C@H]([C@@H](C)O)NC(=O)[C@@H]2CCCN2C(=O)[C@H](Cc2ccc(O)cc2)NC(=O)[C@H](C(C)(C)C)NC(=O)[C@@H](NC(C)=O)CCCC(=O)NCCCC[C@@H](C(N)=O)NC1=O [Compound 050] (Ac-[Aad][Tle]YPT[Trp(7-aza)][Iva]AY[Nva][S5]K-NH2; lactam 1-12)	1000 to 21000 nM
CCC[C@@H]1NC(=O)[C@H](Cc2c[nH]c3ncccc23)NC(=O)[C@H]([C@@H](C)O)NC(=O)[C@H](Cc2ccco2)NC(=O)[C@H](Cc2ccc(O)cc2)NC(=O)[C@H](C(C)(C)C)NC(=O)CCSCc2cccc(c2)CSC[C@@H](C(N)=O)NC(=O)[C@H]([C@@H](C)O)NC(=O)[C@H](CCC)NC(=O)[C@H](Cc2ccc(O)cc2)NC(=O)[C@H](CCC(=O)O)NC1=O [Compound 117] ([Mpa][Tle]Y[Ala(2-furyl)]T[Trp(7-aza)][Nva]EY[Nva]TC-NH2; linker 1-12 via mXylylene)	1000 to 21000 nM
CCC[C@@H]1NC(=O)[C@H](Cc2ccc(O)cc2)NC(=O)[C@H](C)NC(=O)[C@@](C)(NC(=O)[C@H](Cc2cccc3ccccc23)NC(=O)[C@@H](NC(=O)[C@@H]2CCCN2C(=O)[C@H](Cc2ccc(O)cc2)NC(=O)[C@@H](NC(C)=O)C(C)(C)C)[C@@H](C)O)CCC/C=C/CCC[C@@](C)(C(N)=O)NC1=O [Compound 078] (Ac-[Tle]YPT[1Nal][S5]AY[Nva][S5]-NH2; staple (E) 6-10)	1000 to 21000 nM

The next lines start with the values.

IC50	SMILES
100 to 1000 nM	CCC[C@@H]1NC(=O)[C@H](Cc2c[nH]c3ncccc23)NC(=O)[C@H]([C@@H](C)O)NC(=O)[C@H](Cc2c[nH]cn2)NC(=O)[C@H](Cc2ccc(O)cc2)NC(=O)[C@H](C(C)(C)C)NC(=O)CCSCc2cccc(c2)CSC[C@@H](C(N)=O)NC(=O)[C@H]([C@@H](C)O)NC(=O)[C@H](CCC)NC(=O)[C@@H](Cc2ccc(-c3ccccc3)cc2)NC(=O)[C@H](CCC(=O)O)NC1=O [Compound 325] ([Mpa][Tle]YHT[Trp(7-aza)][Nva]E[dBip][Nva]TC-NH2; linker 1-12 via mXylylene)
1 to 100 nM	CC(=O)N[C@H]1CSCc2cccc(c2)CSC[C@H](C(N)=O)NC(=O)[C@H]([C@@H](C)O)NC(=O)[C@](C)(C(C)C)NC(=O)[C@H](Cc2ccc(O)cc2)NC(=O)[C@H](C)NC(=O)C2(CCC2)NC(=O)[C@H](Cc2c[nH]c3ncccc23)NC(=O)[C@H](C(C)(C)O)NC(=O)[C@@H]2CCCN2C(=O)[C@H](Cc2ccc(O)cc2)NC(=O)[C@H](C(C)(C)C)NC1=O [Compound 194] (Ac-C[Tle]YP[Val(3-OH)][Trp(7-aza)][Ac4c]AY[αMeV]T[dC]-NH2; linker 1-12 via mXylylene)
1000 to 21000 nM	CCC[C@@H]1NC(=O)[C@H](Cc2c[nH]c3ncccc23)NC(=O)[C@H]([C@@H](C)O)NC(=O)[C@@H]2CCCN2C(=O)[C@H](Cc2ccc(O)cc2)NC(=O)[C@H](C(C)(C)C)NC(=O)CCSCc2cccc(c2)CSC[C@@H](C(N)=O)NC(=O)[C@H]([C@@H](C)O)NC(=O)[C@H](CCC)NC(=O)[C@H](Cc2ccc(O)cc2)NC(=O)[C@H](CCO)NC1=O [Compound 158] ([Mpa][Tle]YPT[Trp(7-aza)][Nva][hSer]Y[Nva]TC-NH2; linker 1-12 via mXylylene)
1000 to 21000 nM	CCC[C@@H]1NC(=O)[C@H](Cc2c[nH]c3ncccc23)NC(=O)[C@H]([C@@H](C)O)NC(=O)[C@@H]2CCCN2C(=O)[C@H](Cc2ccc(O)cc2)NC(=O)[C@H](C(C)(C)C)NC(=O)[C@@H](NC(C)=O)CCCC(=O)NCCCC[C@H](C(N)=O)NC(=O)[C@H]([C@@H](C)O)NC(=O)[C@](C)(C(C)C)NC(=O)[C@H](Cc2ccc(O)cc2)NC(=O)[C@H](C)NC1=O [Compound 072] (Ac-[Aad][Tle]YPT[Trp(7-aza)][Nva]AY[αMeV]T[dK]-NH2; lactam 1-12)
1000 to 21000 nM	CCC[C@@H]1NC(=O)[C@H](Cc2ccc(O)cc2)NC(=O)[C@H](C)NC(=O)[C@H](CCC)NC(=O)[C@H](Cc2c[nH]c3ncccc23)NC(=O)[C@H]([C@@H](C)O)NC(=O)[C@@H]2CCCN2C(=O)[C@H](Cc2ccc(O)cc2)NC(=O)[C@H](C(C)(C)C)NC(=O)CCSCc2cccc(c2)CSC[C@@H](C(N)=O)NC(=O)[C@H](C)NC1=O [Compound 172] ([Mpa][Tle]YPT[Trp(7-aza)][Nva]AY[Nva]AC-NH2; linker 1-12 via mXylylene)
100 to 1000 nM	CCC[C@@H]1NC(=O)[C@H](Cc2ccc(O)cc2)NC(=O)[C@H](CCC(=O)O)NC(=O)[C@](C)(CC)NC(=O)[C@H](Cc2c[nH]c3ncccc23)NC(=O)[C@H]([C@@H](C)O)NC(=O)[C@H](Cc2c[nH]cn2)NC(=O)[C@H](Cc2ccc(O)cc2)NC(=O)[C@H](C(C)(C)C)NC(=O)CCSCc2cccc(c2)CSC[C@@H](C(N)=O)NC(=O)[C@H]([C@@H](C)O)NC1=O [Compound 291] ([Mpa][Tle]YHT[Trp(7-aza)][Iva]EY[Nva]TC-NH2; linker 1-12 via mXylylene)
100 to 1000 nM	CC(=O)N[C@H]1CSCc2cccc(c2)CSC[C@H](C(N)=O)NC(=O)[C@H]([C@@H](C)O)NC(=O)[C@](C)(C(C)C)NC(=O)[C@H](Cc2ccc(O)cc2)NC(=O)[C@H](C)NC(=O)C2(Cc3ccccc3C2)NC(=O)[C@H](Cc2c[nH]c3ncccc23)NC(=O)[C@H]([C@@H](C)O)NC(=O)[C@@H]2CCCN2C(=O)[C@H](Cc2ccc(O)cc2)NC(=O)[C@H](C(C)(C)C)NC1=O [Compound 196] (Ac-C[Tle]YPT[Trp(7-aza)][Aic]AY[αMeV]T[dC]-NH2; linker 1-12 via mXylylene)
100 to 1000 nM	CCC[C@@H]1NC(=O)[C@H](Cc2csc3ccccc23)NC(=O)[C@H]([C@@H](C)O)NC(=O)[C@H](Cc2c[nH]cn2)NC(=O)[C@H](Cc2ccc(O)cc2)NC(=O)[C@H](C(C)(C)C)NC(=O)CCSCc2cccc(c2)CSC[C@@H](C(N)=O)NC(=O)[C@H]([C@@H](C)O)NC(=O)[C@H](CCC)NC(=O)[C@H](Cc2ccc(O)cc2)NC(=O)[C@H](CCC(=O)O)NC1=O [Compound 275] ([Mpa][Tle]YHT[Bta][Nva]EY[Nva]TC-NH2; linker 1-12 via mXylylene)
100 to 1000 nM	CCC[C@@H]1NC(=O)[C@H](Cc2c[nH]c3ncccc23)NC(=O)[C@H](CC(N)=O)NC(=O)[C@H](Cc2c[nH]cn2)NC(=O)[C@H](Cc2ccc(O)cc2)NC(=O)[C@H](C(C)(C)C)NC(=O)CCSCc2cccc(c2)CSC[C@@H](C(N)=O)NC(=O)[C@H]([C@@H](C)O)NC(=O)[C@H](CCC)NC(=O)[C@H](Cc2ccc(O)cc2)NC(=O)[C@H](CCC(=O)O)NC1=O [Compound 287] ([Mpa][Tle]YHN[Trp(7-aza)][Nva]EY[Nva]TC-NH2; linker 1-12 via mXylylene)
100 to 1000 nM	CCCCCCCC[C@@H]1NC(=O)[C@H](Cc2c[nH]c3ncccc23)NC(=O)[C@H]([C@@H](C)O)NC(=O)[C@@H]2CCCN2C(=O)[C@H](Cc2ccc(O)cc2)NC(=O)[C@H](C(C)(C)C)NC(=O)CCSCc2cccc(c2)CSC[C@@H](C(N)=O)NC(=O)[C@H]([C@@H](C)O)NC(=O)[C@H](CCC)NC(=O)[C@H](Cc2ccc(O)cc2)NC(=O)[C@H](C)NC1=O [Compound 169] ([Mpa][Tle]YPT[Trp(7-aza)][Gly(octyl)]AY[Nva]TC-NH2; linker 1-12 via mXylylene)
